Earlier results in patent US20160101114A1, “ARTICLES AND METHODS FOR PREVENTING AND TREATING DERMATOLOGIC ADVERSE EVENTS” (SLOAN-KETTERING INSTITUTE FOR CANCER RESEARCH, priority 2013, published 2016).

Conditions: cancer therapies with multikinase inhibitors

Row | Compound | all grade incidence of hand foot syndrome [%]
1 | CNC(=O)c1ccccc1Sc1ccc2c(/C=C/c3ccccn3)n[nH]c2c1 [axitinib] | 29
2 | COc1cc2nccc(Oc3ccc(NC(=O)C4(C(=O)Nc5ccc(F)cc5)CC4)cc3)c2cc1OC [cabozantinib] | 50
3 | Cc1ccc(Nc2nccc(N(C)c3ccc4c(C)n(C)nc4c3)n2)cc1S(N)(=O)=O [pazopanib] | 5
4 | CNC(=O)c1cc(Oc2ccc(NC(=O)Nc3ccc(Cl)c(C(F)(F)F)c3)c(F)c2)ccn1 [regorafenib] | 46
5 | CNC(=O)c1cc(Oc2ccc(NC(=O)Nc3ccc(Cl)c(C(F)(F)F)c3)cc2)ccn1 [sorafenib] | 60
6 | CCN(CC)CCNC(=O)c1c(C)[nH]c(/C=C2\C(=O)Nc3ccc(F)cc32)c1C [sunitinib] | 30
7 | COc1cc2c(Nc3ccc(Br)cc3F)ncnc2cc1OCC1CCN(C)CC1 [vandetanib] | 5
8 | ziv-aflibercept | 2
